From patent publication US20170044100A1, “INHIBITORS OF DRUG-RESISTANT MYCOBACTERIUM TUBERCULOSIS” (THE JOHNS HOPKINS UNIVERSITY, priority 2014, published 2017)
≈ marks a conversion by molar mass, not a printed value. Like-named read-outs stand apart in the source and are kept apart here.

What was measured:
[1] = system: M. tuberculosis strain H37Rv; test: microbe, parasite or virus in culture; type: cell-based, Mycobacterium tuberculosis; design: MICMABA: unit not given here; conditions: for MICMABA: H37Rv, MABA, Table 9; for MIC: Mycobacterium tuberculosis
[2] = system: V4207 (drug susceptible strain of M. tuberculosis); test: microbe, parasite or virus in culture; type: cell-based; conditions: Mycobacterium tuberculosis, MABA, read-out: MIC V4207 (DS)
M. tuberculosis H37Rv [3] = test: microbe, parasite or virus in culture; type: cell-based, Mycobacterium tuberculosis; design: MICBD / MBCBD: unit not given here; conditions: for MBC: Mycobacterium tuberculosis, H37RV, read-out: minimum bactericidal concentration (MBC); for MBCBD / MICBD: H37Rv, broth dilution, Table 9
M. tuberculosis H37Rv [4] = type: cell-based, Mycobacterium tuberculosis; conditions: 4× MIC
M. tuberculosis H37Rv [5] = type: in vivo, BALB/c mice
[6] = design: species or system BALB/c mice; conditions: mouse, in vivo
Description: Female BALB/c mice (20 g each, Charles River Laboratories) were given a single dose of compound 12 at 100 mg/kg by oral gavage in a volume of 0.2 mL. […] Mouse lungs were removed, weighed and stored at −80° C. Plasma was separated by centrifugation at 12,000 x g for 20 min at 4° C. and stored at −80° C. Mouse lungs were homogenized by bead-beating in 0.5 mL of liquid chromatography/mass spectrometry (LC/MS) water and supernatants were recovered by centrifugation at 4° C. for 20 min. Concentrations of compound 12 in plasma and lung homogenate supernatants were analyzed with LC-tandem MS (LC-MS/MS, AB SCIEX QTRAP 5500 system) with compound 2 as internal standard. MS detection of mass transitions 299.01/146.1 and 299.01/131.1 was carried out. Concentration calculation was done with MultiQuant Software (Version 2.1, AB SCIEX). The pharmacokinetic profile of the test compound was analyzed from plasma and lung concentration-time data after oral administration.
A single 100 mg/kg dose of compound 12 was administered to 24 mice (3 per time point). Plasma and lung concentration of compound 12 was determined by liquid chromatography-tandem mass spectrometry.

[7] = Cytotoxicity assay on Vero cells (alamar blue); conditions: African green monkey, Vero cells (ATCC CCL-81)
Vero cells = test: Cytotoxicity assay on Vero cells (alamar blue); conditions: for IC50: Chlorocebus sabaeus, Vero
in vitro = conditions: African green monkey, IC50 (cytotoxicity against Vero cells), Table 1
[8] = control strains H37Rv and V4207, read-out: MIC
[9] = parental H37Rv strain, read-out: MIC for H37Rv
[10] = read-out: IC50 Vero Cells, Vero cells, Table 9

Cc1cc(C)c2cc(C(=O)NC3CCCCCCC3)[nH]c2c1 [Compound 12, N-Cyclooctyl-4,6-dimethyl-1H-indole-2-carboxamide] gave an MICMABA [1] of 0.0039, an MIC ([1]; H37RV) of 0.013 µM and an MIC [1, 8] of 0.0039 µg/mL. For the same compound, the MIC [1, 9] was 0.0039 µg/mL, the “MIC for H37Rv” value ([1]; parental H37Rv strain) was 0.0039 µg/mL and the MIC [2] was 0.026 µM (≈ 0.00776 µg/mL). For the same compound, the MBC (M. tuberculosis H37Rv [3]) was 0.0078 µg/mL (≈ 0.0261 µM), the “time to kill at least 4 log10 CFUs” value (M. tuberculosis H37Rv [4]) was ≤ 5 days and the “Mean lung CFU counts (standard deviation), Day 7” value (M. tuberculosis H37Rv [5]; 33.3 mg/kg oral gavage daily (5 days per week)) was 7.184 (0.244). The “Mean lung CFU counts (standard deviation), Day 14” value (M. tuberculosis H37Rv [5]; 33.3 mg/kg oral gavage daily) was 7.001 (0.206), the “Mean lung CFU counts (standard deviation), Day 28” value (M. tuberculosis H37Rv [5]; 33.3 mg/kg oral gavage daily) was 6.919 (0.112) and the “Mean lung CFU counts (standard deviation), Day 7” value (M. tuberculosis H37Rv [5]; 100 mg/kg oral gavage daily) was 6.902 (0.243). For the same compound, the “Mean lung CFU counts (standard deviation), Day 14” value (M. tuberculosis H37Rv [5]; 100 mg/kg oral gavage daily) was 7.122 (0.148), the “Mean lung CFU counts (standard deviation), Day 28” value (M. tuberculosis H37Rv [5]; 100 mg/kg oral gavage daily) was 6.803 (0.068) and the “Mean lung CFU counts (standard deviation), Day 7” value (M. tuberculosis H37Rv [5]; 300 mg/kg oral gavage daily) was 6.768 (0.329). The “Mean lung CFU counts (standard deviation), Day 14” value (M. tuberculosis H37Rv [5]; 300 mg/kg oral gavage daily) was 6.981 (0.305), the “Mean lung CFU counts (standard deviation), Day 28” value (M. tuberculosis H37Rv [5]; 300 mg/kg oral gavage daily) was 6.746 (0.157) and the “lung CFU counts compared to untreated mice” value (M. tuberculosis H37Rv [5]; after four weeks of treatment, 33, 100 and 300 mg/kg daily oral gavage) was “significantly lower”. The “oral bioavailability in mice” value [6] was “orally bioavailable”, the “AUC0-24, lung” value ([6]; po, 100 mg/kg) was 31.40 mg·h/kg and the IC50 at 72 h [7] was 54 µM. The IC50 (Vero cells; read-out: IC50 Vero Cells) was 16 µg/mL (≈ 53.6 µM), the “Selectivity Index” value (Vero cells; Vero IC50 versus MIC, Table 9) was 4000 and the selectivity index (Vero cells; toxicity versus MIC) was 4000.
With Cc1cc(C)c2cc(C(=O)Nc3ccccc3)[nH]c2c1 [Compound 4, N-Phenyl-4,6-dimethyl-1H-indole-2-carboxamide] the MICMABA [1] was 1, the MIC ([1]; H37RV) was 3.8 µM and the MBCBD (M. tuberculosis H37Rv [3]) was 8. The MICBD (M. tuberculosis H37Rv [3]) was 1, the IC50 (in vitro) was > 200 µM and the IC50 (Vero cells; [10]) was > 64 µg/mL.
In the case of Cc1cc(C)c2cc(C(=O)NC3CCCCC3)[nH]c2c1 [Compound 3, N-Cyclohexyl-4,6-dimethyl-1H-indole-2-carboxamide], the MICMABA [1] is reported as 0.125, the MIC ([1]; H37RV) is reported as 0.93 µM and the MIC [1, 8] is reported as 0.125 to 0.25 µg/mL. For the same compound, the MIC [1, 9] was 0.125 to 0.25 µg/mL, the MIC [2] was 0.93 µM (≈ 0.251 µg/mL) and the MBCBD (M. tuberculosis H37Rv [3]) was 0.25. The MICBD (M. tuberculosis H37Rv [3]) was 0.25, the MBC (M. tuberculosis H37Rv [3]) was 0.25 µg/mL (≈ 0.925 µM) and the IC50 (in vitro) was > 200 µM. The “Selectivity Index” value (Vero cells) was >256, the selectivity index (Vero cells) was > 256 and the IC50 (Vero cells; [10]) was > 64 µg/mL. For the same compound, the “IC50 for Vero cell viability” value (Vero cells; Vero cell line) was 16 µg/mL.
